According to the supplement of paper PMC10307832:

What was measured:
Test in all cases: relative viability (nuclei count vs DMSO), 5 days (fraction); higher = more cells survive
17-AAG + Decitabine = compound: C=CCNC1=C2C[C@@H](C)C[C@H](OC)[C@H](O)[C@@H](C)/C=C(\C)[C@H](OC(N)=O)[C@@H](OC)/C=C\C=C(/C)C(=O)NC(=CC1=O)C2=O [17-AAG] + Nc1ncn([C@H]2C[C@H](O)[C@@H](CO)O2)c(=O)n1 [Decitabine] (partner 2 µM)
Method in brief: (§1)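 Medians of duplicate plates are given as relative viability. That measure is the nuclei count in treated wells divided by the count in vehicle wells. Counts were taken on 4× images of lung cancer cell lines in 1536-well plates, 5 days after pin-tool dosing the day after seeding with one drug alone or a fixed anchor-drug dose plus five library-drug doses (not always all listed) in √10 steps.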

17-AAG + AZD7762 = compound: C=CCNC1=C2C[C@@H](C)C[C@H](OC)[C@H](O)[C@@H](C)/C=C(\C)[C@H](OC(N)=O)[C@@H](OC)/C=C\C=C(/C)C(=O)NC(=CC1=O)C2=O [17-AAG] + NC(=O)Nc1cc(-c2cccc(F)c2)sc1C(=O)N[C@H]1CCCNC1 [AZD7762] (partner 0.2 µM)
Method in brief: as §1

17-AAG + Olaparib = compound: C=CCNC1=C2C[C@@H](C)C[C@H](OC)[C@H](O)[C@@H](C)/C=C(\C)[C@H](OC(N)=O)[C@@H](OC)/C=C\C=C(/C)C(=O)NC(=CC1=O)C2=O [17-AAG] + O=C(c1cc(Cc2n[nH]c(=O)c3ccccc23)ccc1F)N1CCN(C(=O)C2CC2)CC1 [Olaparib] (partner 8 µM)
Method in brief: as §1

17-AAG + Lapatinib = compound: C=CCNC1=C2C[C@@H](C)C[C@H](OC)[C@H](O)[C@@H](C)/C=C(\C)[C@H](OC(N)=O)[C@@H](OC)/C=C\C=C(/C)C(=O)NC(=CC1=O)C2=O [17-AAG] + CS(=O)(=O)CCNCc1ccc(-c2ccc3ncnc(Nc4ccc(OCc5cccc(F)c5)c(Cl)c4)c3c2)o1 [Lapatinib] (partner 2 µM)
Method in brief: as §1

Cell Line | relative viability (17-AAG + Decitabine; first compound 0.00128 µM) | relative viability (17-AAG + Decitabine; first compound 0.004048 µM) | relative viability (17-AAG + Decitabine; first compound 0.0128 µM) | relative viability (17-AAG + Decitabine; first compound 0.04048 µM) | relative viability (17-AAG + Decitabine; first compound 0.128 µM) | relative viability (17-AAG + AZD7762; first compound 0.00128 µM) | relative viability (17-AAG + AZD7762; first compound 0.004048 µM) | relative viability (17-AAG + AZD7762; first compound 0.0128 µM) | relative viability (17-AAG + AZD7762; first compound 0.04048 µM) | relative viability (17-AAG + AZD7762; first compound 0.128 µM) | relative viability (17-AAG + Olaparib; first compound 0.00128 µM) | relative viability (17-AAG + Olaparib; first compound 0.004048 µM) | relative viability (17-AAG + Olaparib; first compound 0.0128 µM) | relative viability (17-AAG + Olaparib; first compound 0.04048 µM) | relative viability (17-AAG + Olaparib; first compound 0.128 µM) | relative viability (17-AAG + Lapatinib; first compound 0.00128 µM) | relative viability (17-AAG + Lapatinib; first compound 0.004048 µM) | relative viability (17-AAG + Lapatinib; first compound 0.0128 µM) | relative viability (17-AAG + Lapatinib; first compound 0.04048 µM) | relative viability (17-AAG + Lapatinib; first compound 0.128 µM)
201T | 0.842 | 0.838 | 0.811 | 0.804 | 0.71 | 0.626 | 0.543 | 0.459 | 0.258 | 0.261 | 0.843 | 0.857 | 0.849 | 0.802 | 0.748 | 1 | 1.04 | 0.991 | 0.999 | 0.512
A-427 | 0.55 | 0.528 | 0.561 | 0.395 | 0.306 | 0.819 | 0.798 | 0.618 | 0.268 | 0.234 | 0.814 | 0.686 | 0.806 | 0.606 | 0.241 | 1.04 | 1.12 | 1.05 | 1.12 | 0.607
ABC-1 | 1.08 | 1.16 | 1.24 | 1.2 | 0.666 | 0.902 | 0.726 | 0.844 | 0.835 | 0.498 | 0.677 | 0.847 | 0.737 | 0.954 | 0.486 | 0.968 | 1.03 | 1.06 | 1.54 | 1.12
BEN | 0.613 | 0.712 | 0.759 | 0.446 | 0.288 | 0.692 | 0.891 | 0.648 | 0.5 | 0.392 | 1.06 | 1.03 | 1.01 | 0.666 | 0.358 | 0.859 | 0.726 | 0.727 | 0.405 | 0.204
CAL-12T | – | – | – | – | – | 0.655 | 0.553 | 0.608 | 0.393 | 0.233 | 0.754 | 0.697 | 0.725 | 0.371 | 0.211 | 0.645 | 0.598 | 0.611 | 0.527 | 0.334
COR-L23 | 0.328 | 0.52 | 0.432 | 0.351 | 0.138 | – | – | – | – | – | 0.377 | 0.322 | 0.324 | 0.169 | 0.112 | 0.769 | 0.82 | 1.06 | 0.852 | 0.169
COR-L 105 | 0.655 | 0.701 | 0.699 | 0.484 | 0.504 | – | – | – | – | – | 0.601 | 0.71 | 0.778 | 0.55 | 0.515 | 0.352 | 0.333 | 0.344 | 0.406 | 0.306
Calu-6 | – | – | – | – | – | – | – | – | – | – | 0.564 | 0.571 | 0.557 | 0.184 | 0.124 | 1.03 | 1.01 | 0.861 | 0.323 | 0.135
ChaGo-K-1 | 0.444 | 0.55 | 0.491 | 0.514 | 0.428 | 0.843 | 0.871 | 0.861 | 0.449 | 0.217 | 0.439 | 0.453 | 0.388 | 0.366 | 0.257 | – | – | – | – | –
EKVX | 0.351 | 0.284 | 0.257 | 0.162 | 0.139 | 0.817 | 0.726 | 0.669 | 0.435 | 0.162 | 0.826 | 0.762 | 0.775 | 0.175 | 0.126 | 0.223 | 0.218 | 0.197 | 0.0769 | 0.12
EMC-BAC-2 | 0.98 | 0.939 | 0.692 | 0.31 | 0.219 | 1.17 | 1.15 | 0.735 | 0.598 | 0.287 | 0.533 | 0.516 | 0.316 | 0.334 | 0.273 | 0.948 | 0.948 | 0.907 | 0.777 | 0.16
EPLC-272H | 0.367 | 0.352 | 0.307 | 0.158 | 0.0907 | 0.208 | 0.3 | 0.207 | 0.13 | 0.101 | 0.721 | 0.662 | 0.195 | 0.0777 | 0.0732 | 1.04 | 1.02 | 0.929 | 0.425 | 0.153
H3255 | 0.788 | 0.566 | 0.488 | 0.231 | 0.198 | 0.876 | 1 | 0.674 | 0.252 | 0.245 | 0.556 | 0.494 | 0.484 | 0.284 | 0.231 | 0.296 | 0.338 | 0.275 | 0.235 | 0.175
HARA | 0.517 | 0.57 | 0.617 | 0.569 | 0.232 | 0.425 | 0.295 | 0.209 | 0.251 | 0.18 | 0.891 | 0.78 | 1.02 | 1.18 | 0.18 | 0.694 | 0.811 | 0.692 | 0.831 | 0.325
HCC-15 | 0.599 | 0.557 | 0.174 | 0.136 | 0.137 | 1.29 | 1.27 | 0.986 | 0.461 | 0.158 | 0.726 | 0.71 | 0.306 | 0.332 | 0.15 | 0.795 | 0.625 | 0.351 | 0.225 | 0.106
HCC-44 | 0.927 | 0.964 | 0.931 | 0.958 | 0.355 | 1 | 1.02 | 1.03 | 0.973 | 0.398 | 0.976 | 0.989 | 1 | 0.997 | 0.492 | 1.06 | 0.986 | 0.998 | 0.287 | 0.125
HCC-78 | 0.511 | 0.841 | 0.695 | 0.465 | 0.369 | 0.599 | 0.821 | 0.666 | 0.155 | 0.352 | 0.806 | 0.832 | 1.07 | 0.681 | 0.308 | 1.12 | – | 0.994 | 0.603 | 0.296
